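Five concentrations, 48 hours, 96-well plates. GI50 marks 50% less growth. TGI marks complete inhibition of growth.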

Drawing on PubChem BioAssay (NCI), this text covers GI50 and TGI for twelve compounds.

Test systems include COLO 205 colon; HT29 colon; K-562 leukemia; OVCAR-5 ovarian; RPMI-8226 leukemia; SF-268 CNS; SN12C renal; SNB-19 CNS; TK-10 renal; UACC-62 melanoma.
Experiment in all cases: growth of human tumour cells (NCI), 48 h

Consider `CCN(CC)c1ccc(/C=N/NC(=O)CSc2nc3ccccc3c(=O)n2Cc2ccc(S(N)(=O)=O)cc2)c(O)c1`, for which the GI50 in the assay with COLO 205 colon is 1.51 µM; with HT29 colon, 3.01 µM; with K-562 leukemia, 0.592 µM; with OVCAR-5 ovarian, 2.09 µM; with RPMI-8226 leukemia, 0.521 µM; in the assay on SF-268 CNS, 0.766 µM. For the same compound, the GI50 is 1.93 µM in the assay with SN12C renal, 2.1 µM with SNB-19 CNS, 1.66 µM with TK-10 renal and 0.886 µM with UACC-62 melanoma. Moreover, the TGI in the assay with COLO 205 colon is greater than 100 µM; in the assay on HT29 colon, greater than 100 µM; in the assay with K-562 leukemia, greater than 100 µM; in the assay with OVCAR-5 ovarian, greater than 100 µM; in the assay with RPMI-8226 leukemia, 4.85 µM; in the assay on SF-268 CNS, greater than 100 µM. For the same compound, the TGI was greater than 100 µM in the assay on SN12C renal, greater than 100 µM with SNB-19 CNS, greater than 100 µM in the assay with TK-10 renal and 5.44 µM with UACC-62 melanoma.
As for `COC(=O)CC(=O)NCC1=CCC(=O)CC1`, the TGI in the assay with COLO 205 colon, in the assay on HT29 colon, in the assay with K-562 leukemia, in the assay with RPMI-8226 leukemia, in the assay with SF-268 CNS and with SN12C renal was greater than 100 µM throughout. The TGI with SNB-19 CNS, in the assay on TK-10 renal and in the assay with UACC-62 melanoma was greater than 100 µM throughout.
Consider `OC12CCC3(O)c4ccccc4C3C1c1ccccc12` (stereo unspecified), for which the TGI in the assay on COLO 205 colon, in the assay with HT29 colon, in the assay with K-562 leukemia, with RPMI-8226 leukemia, in the assay with SF-268 CNS and with SN12C renal was greater than 100 µM throughout. Besides, the TGI with SNB-19 CNS, in the assay on TK-10 renal and with UACC-62 melanoma was greater than 100 µM in each case.
On to `COc1cc2c(c(OC)c1OC)-c1ccc(SC)c(=O)cc1C(CC(=O)Oc1cccc(F)c1)C2` (stereo unspecified), for which the TGI with COLO 205 colon is 0.555 µM; in the assay with HT29 colon, 0.557 µM; in the assay on K-562 leukemia it was greater than 52.4 µM; in the assay on OVCAR-5 ovarian it was greater than 100 µM; in the assay on RPMI-8226 leukemia it was 6.19 µM; with SF-268 CNS, greater than 72.5 µM. The TGI with SN12C renal was 16.6 µM; with SNB-19 CNS it was greater than 100 µM; in the assay on TK-10 renal, greater than 100 µM; in the assay with UACC-62 melanoma, 1.07 µM.
Turning to `N#C/C(=C\c1ccccc1)C(NO)Nc1ccccc1` (stereo unspecified), the TGI in the assay with COLO 205 colon, in the assay on HT29 colon, in the assay on K-562 leukemia, with OVCAR-5 ovarian, in the assay on RPMI-8226 leukemia and with SF-268 CNS was greater than 100 µM throughout. In addition, the TGI in the assay with SN12C renal, in the assay with SNB-19 CNS, in the assay on TK-10 renal and in the assay on UACC-62 melanoma was greater than 100 µM throughout.
Consider `S=C(CSc1ccccc1)Nc1cccc2ccccc12`, for which the TGI in the assay on COLO 205 colon was 32 µM; with HT29 colon it was greater than 100 µM; with K-562 leukemia, greater than 100 µM; in the assay on OVCAR-5 ovarian it was greater than 100 µM; in the assay on RPMI-8226 leukemia it was greater than 100 µM; with SF-268 CNS, greater than 100 µM. Moreover, the TGI in the assay on SN12C renal, in the assay with SNB-19 CNS, in the assay with TK-10 renal and in the assay with UACC-62 melanoma was greater than 100 µM throughout.
As to `CCC(=O)C(C(=O)CC)c1c(OC(=O)c2ccccc2)ccc(O)c1C(=O)OC`, the TGI in the assay on COLO 205 colon, in the assay on HT29 colon, in the assay with K-562 leukemia, in the assay with OVCAR-5 ovarian, in the assay with RPMI-8226 leukemia and in the assay on SF-268 CNS was greater than 100 µM each time. For the same compound, the TGI with SN12C renal, in the assay with SNB-19 CNS, in the assay with TK-10 renal and in the assay with UACC-62 melanoma was greater than 100 µM each time.
With `CC[C@@H](O)C[C@H]1CCC[C@@]2(C[C@@H]3OC(=O)/C=C/[C@@](C)(O)[C@@H](O)[C@H](C)[C@@H](O)[C@H](OC4CCC(N(C)C)C(C)O4)[C@@H](O)[C@](C)(O)CCCCC/C=C/[C@@H]4CC(C)(C)O[C@@]4(O)C[C@H](O2)[C@H]3C)O1` (stereo partly specified), the TGI in the assay on COLO 205 colon was 14.5 µM; with HT29 colon, greater than 39.7 µM; in the assay on K-562 leukemia, 21.5 µM; with OVCAR-5 ovarian, 28.1 µM; with RPMI-8226 leukemia, 25 µM; in the assay with SF-268 CNS it was 35.2 µM. Moreover, the TGI in the assay on SN12C renal was found to be 37.1 µM; with SNB-19 CNS it was 20.6 µM; in the assay with TK-10 renal, 21.6 µM; in the assay with UACC-62 melanoma, 21.8 µM.
On to `OC(COc1ccccc1)CN1CCCCC1` (stereo unspecified), for which the TGI in the assay on COLO 205 colon, in the assay on HT29 colon, in the assay with K-562 leukemia, with OVCAR-5 ovarian, in the assay with RPMI-8226 leukemia and in the assay with SF-268 CNS was greater than 100 µM each time. Besides, the TGI in the assay on SN12C renal, in the assay on SNB-19 CNS, in the assay with TK-10 renal and in the assay on UACC-62 melanoma was greater than 100 µM each time.
Consider `CC(=O)NC1=C(N)C(=O)c2ccccc2C1=O`, for which the TGI in the assay on COLO 205 colon was 80.6 µM; with HT29 colon, greater than 100 µM; in the assay with K-562 leukemia, greater than 100 µM; with OVCAR-5 ovarian it was greater than 100 µM; in the assay with RPMI-8226 leukemia, greater than 100 µM; with SF-268 CNS, greater than 100 µM. Also, the TGI in the assay on SN12C renal, in the assay with SNB-19 CNS, in the assay on TK-10 renal and in the assay on UACC-62 melanoma was greater than 100 µM throughout.
Regarding `Cc1cc2c(cc1CO)N1Cc3cc(C)c(CO)cc3N(C2)C1`, the TGI in the assay with COLO 205 colon, with HT29 colon, with K-562 leukemia, in the assay on RPMI-8226 leukemia, with SF-268 CNS and with SN12C renal was greater than 100 µM in each case. Also, the TGI in the assay on SNB-19 CNS, in the assay on TK-10 renal and with UACC-62 melanoma was greater than 100 µM each time.
On to `O=C(NC(=O)c1cn(CCN2CCN(C(=O)NCCCCCCNC(=O)N3CCN(CCn4cc(C(=O)NC(=O)OCc5ccccc5)c(=O)[nH]c4=O)CC3)CC2)c(=O)[nH]c1=O)OCc1ccccc1`, for which the TGI in the assay with COLO 205 colon, with HT29 colon, with K-562 leukemia, in the assay on OVCAR-5 ovarian, in the assay with RPMI-8226 leukemia and with SN12C renal was greater than 100 µM each time. Moreover, the TGI in the assay on SNB-19 CNS, in the assay with TK-10 renal and with UACC-62 melanoma was greater than 100 µM in each case.
